Data published in patent US9999222B2, “Herbicidal combination comprising azines” (BASF SE, priority 2014, dated 2018).
Read-outs that look alike come from different tables or passages of the source.

Key:
Test in all cases: Greenhouse test, pre-emergence treatment
ECHCG = type: in vivo, Echinocloa crus-galli; settings: Echinochloa crus-galli, 480 h, ECHCG, use rate 50 g ai/ha, 20 DAT, read-out: observed % activity 20 DAT
From the text: (§1) The culture containers used were plastic flowerpots containing loamy sand with approximately 3.0% of humus as the substrate. The seeds of the test plants were sown separately for each species.
(§2) For the pre-emergence treatment, the active ingredients, which had been suspended or emulsified in water, were applied directly after sowing by means of finely distributing nozzles. The containers were irrigated gently to promote germination and growth and subsequently covered with transparent plastic hoods until the plants had rooted. This cover caused uniform germination of the test plants, unless this had been impaired by the active ingredients.
(§3) Depending on the species, the plants were kept at 10-25° C. or 20-35° C., respectively.
(§4) The test period extended over 2 to 4 weeks. During this time, the plants were tended, and their response to the individual treatments was evaluated.
(§5) Evaluation was carried out using a scale from 0 to 100. 100 means no emergence of the plants, or complete destruction of at least the aerial moieties, and 0 means no damage, or normal course of growth. A moderate herbicidal activity is given at values of at least 60, a good herbicidal activity is given at values of at least 70, and a very good herbicidal activity is given at values of at least 85.
(§6) The respective stated components a and b, and if appropriate, c were formulated as a 10% by weight strength emulsion concentrate and, with addition of the amount of solvent system, introduced into the spray liquor used for applying the active compound.
(§7) In the examples, the solvent used was water.
(§8) In the examples below, using the method of S. R. Colby (1967) “Calculating synergistic and antagonistic responses of herbicide combinations”, Weeds 15, p. 22ff., the value E, which is expected if the activity of the individual active compounds is only additive, was calculated. E=X+Y−(X·Y/100) where • X=percent activity using active compound a at an application rate A; • Y=percent activity using active compound b at an application rate B; • E=expected activity (in %) by a+b at application rates A+B.
(§9) If the value found experimentally is higher than the value E calculated according to Colby, a synergistic effect is present.

SIDRH = type: in vivo, Sida rhombifolia; settings: Sida rhombifolia, pre-emergence, 480 h
Summary of the method: (§10)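 Damage was rated on a 0-100 scale, with 100 meaning no emergence or full destruction of aerial parts. Observed combination effects were set against the additive Colby expectation E=X+Y−(X·Y/100). Spray liquor was water-based, from 10% emulsion concentrates, applied pre-emergence right after sowing in loamy sand (about 3.0% humus). Plants were held at 10-25 °C or 20-35 °C for 2 to 4 weeks.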

COMBE = type: in vivo, Commelina benghalensis; settings: Commelina benghalensis, pre-emergence, 480 h
Summary of the method: as §10

LOLMU = type: in vivo, Lolium multiflorum; settings: Lolium multiflorum, pre-emergence, 480 h, pre-emergence, read-out: observed % activity 20 DAT
From the text: as §1, §2, §3, §4, §5, §6, §7, §8, §9

EPHHL = type: in vivo, Euphorbia heterophylla; settings: Euphorbia heterophylla, pre-emergence, 480 h, read-out: observed % activity 20 DAT
Summary of the method: as §10

GERPU = type: in vivo, Geranium pusillum; settings: Geranium pusillum, pre-emergence, 480 h
Summary of the method: as §10

KCHSC = type: in vivo, Kochia scoparia; settings: Bassia scoparia, pre-emergence, 480 h, pre-emergence, read-out: observed % activity 20 DAT
Summary of the method: as §10

ABUTH = type: in vivo, Abutilon theophrasti; settings: Abutilon theophrasti, 480 h
Summary of the method: as §10

CENCY = type: in vivo; settings: 480 h, individual, read-out: observed % activity 20 DAT
ALOMY = type: in vivo, Alopecurus myosuroides; settings: Alopecurus myosuroides, pre-emergence, 480 h, pre-emergence, read-out: observed % activity 20 DAT; for inhibition at 50 g/ha: use rate 50 g ai/ha; for inhibition at 100 g/ha: use rate 100 g ai/ha
From the text: as §1, §2, §3, §4, §5, §6, §7, §8, §9

APESV = type: in vivo, Apera spica-venti; settings: Apera spica-venti, 480 h, read-out: observed % activity 20 DAT
From the text: as §1, §2, §3, §4, §5, §6, §7, §8, §9

IPOHE = type: in vivo, Ipomoea hederacea; settings: Ipomoea hederacea, 480 h, IPOHE, individual, read-out: observed % activity 20 DAT
Summary of the method: as §10

ANTAR = type: in vivo; settings: Anthemis arvensis, 480 h, 20 DAT, read-out: observed % activity
Summary of the method: as §10

POLCO = type: in vivo, Polygonum convolvulus; settings: Fallopia convolvulus, pre-emergence, 480 h; for inhibition at 50 g/ha: use rate 50 g ai/ha
Summary of the method: as §10

[1] = 20 g ai/ha, 20 DAT, read-out: observed % activity
[2] = 40 g ai/ha, 20 DAT, read-out: observed % activity
[3] = read-out: observed % activity 20 DAT

## COc1c(Cl)ccc(Cl)c1C(=O)O [DICAMBA, dicamba]
ECHCG
  inhibition at 50 g/ha: 0%
SIDRH; [1]
  inhibition at 20 g/ha: 45%
SIDRH; [2]
  inhibition at 40 g/ha: 80%
SIDRH; SIDRH, individual, use rate 35 g ai/ha, read-out: observed % activity 20 DAT
  inhibition at 35 g/ha: 20%
SIDRH; [3]
  inhibition at 70 g/ha: 15%
COMBE; [1]
  inhibition at 20 g/ha: 45%
COMBE; [2]
  inhibition at 40 g/ha: 65%
COMBE; COMBE, individual, use rate 70 g ai/ha, read-out: observed % activity 20 DAT
  inhibition at 70 g/ha: 50%
COMBE; [3]
  inhibition at 35 g/ha: 15%
LOLMU; LOLMU, use rate 50 g ai/ha, 20 DAT
  inhibition at 50 g/ha: 40%
LOLMU
  inhibition at 100 g/ha: 45%
EPHHL
  inhibition at 35 g/ha: 20%
GERPU; [1]
  inhibition at 20 g/ha: 20%
GERPU; [2]
  inhibition at 40 g/ha: 85%
GERPU; GERPU, individual, use rate 35 g ai/ha, read-out: observed % activity 20 DAT
  inhibition at 35 g/ha: 40%
KCHSC; use rate 100 g ai/ha
  inhibition at 100 g/ha: 90%
KCHSC
  inhibition at 35 g/ha: 75%
  inhibition at 50 g/ha: 85%
  inhibition at 70 g/ha: 75%
ABUTH; [1]
  inhibition at 20 g/ha: 60%
ABUTH; [2]
  inhibition at 40 g/ha: 80%
ABUTH; ABUTH, individual, use rate 35 g ai/ha, read-out: observed % activity 20 DAT
  inhibition at 35 g/ha: 0%
ABUTH; ABUTH, individual, use rate 70 g ai/ha, read-out: observed % activity 20 DAT
  inhibition at 70 g/ha: 20%
CENCY; use rate 35 g ai/ha
  inhibition at 35 g/ha: 0%
CENCY; use rate 70 g ai/ha
  inhibition at 70 g/ha: 30%
ALOMY; ALOMY, 20 DAT
  inhibition at 50 g/ha: 20%
  inhibition at 100 g/ha: 40%
ALOMY
  inhibition at 50 g/ha: 20%
  inhibition at 100 g/ha: 40%
APESV
  inhibition at 100 g/ha: 35%
IPOHE; use rate 35 g ai/ha
  inhibition at 35 g/ha: 40%
IPOHE; use rate 70 g ai/ha
  inhibition at 70 g/ha: 40%
ANTAR; 20 g ai/ha
  inhibition at 20 g/ha: 30%
ANTAR; 40 g ai/ha
  inhibition at 40 g/ha: 30%
POLCO; [1]
  inhibition at 20 g/ha: 35%
POLCO; [2]
  inhibition at 40 g/ha: 90%
POLCO; POLCO, 20 DAT, read-out: observed % activity 20 DAT
  inhibition at 50 g/ha: 40%
POLCO; [3]
  inhibition at 50 g/ha: 40%
POLCO; use rate 100 g ai/ha, read-out: observed % activity 20 DAT
  inhibition at 100 g/ha: 60%
